Data taken from patent US20250176599A1, “FLAVOR COMPOSITION AND FOOD AND BEVERAGE” (TAKASAGO INTERNATIONAL CORPORATION, priority 2021, published 2025).

What was measured:
[1] = Sensory evaluation of aqueous solution IV containing 1,5-octadien-3-one 100 ppt: off-flavor intensity and masking component intensity; conditions: aqueous solution IV, average panel score
Summary of the method: (§1)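 Nootkatone added to degradation-component solutions in ion-exchanged water and scored by eight experienced panelists. Off-flavor rated 0–4 relative to unmasked solution (4) and plain water (0). Masking-component intensity rated on an absolute 0–4 scale.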

[2] = Sensory evaluation of aqueous solution V containing 1-octen-3-ol 10 ppb: off-flavor intensity and masking component intensity; conditions: average panel score
Summary of the method: as §1

[3] = Sensory evaluation of aqueous solution VI containing 1,5-octadien-3-ol 10 ppb: off-flavor intensity and masking component intensity; conditions: aqueous solution VI, average panel score
Summary of the method: as §1

[4] = Overall conclusion of the sensory evaluation across aqueous solutions I to VI
Summary of the method: as §1

[5] = Sensory evaluation of aqueous solution II containing (E)-2-octenal 10 ppb: off-flavor intensity and masking component intensity; conditions: average panel score
Summary of the method: as §1

[6] = Sensory evaluation of aqueous solution III containing 1-octen-3-one 1 ppb: off-flavor intensity and masking component intensity; conditions: average panel score
Summary of the method: as §1

[7] = Sensory evaluation of aqueous solution I containing (E)-2-nonenal 1 ppb: off-flavor intensity and masking component intensity; conditions: average panel score
Summary of the method: as §1

CC(=O)/C(C)=C/C1C(C)=CCCC1(C)C (centres unmarked) [γ-methyl ionone]
Masking Component Intensity ([1]; 0.01 ppt added): 0.0
Off-Flavor Intensity ([1]; 0.01 ppt added): 3.8
Masking Component Intensity ([1]; 0.1 ppt added): 0.0
Off-Flavor Intensity ([1]; 0.1 ppt added): 3.5
Masking Component Intensity ([1]; 1 ppb added): 1.5
Off-Flavor Intensity ([1]; 1 ppb added): 2.1
Masking Component Intensity ([1]; 1 ppm added): 4.0
Off-Flavor Intensity ([1]; 1 ppm added): 0.6
Masking Component Intensity ([1]; 1 ppt added): 0.3
Off-Flavor Intensity ([1]; 1 ppt added): 3.4
Masking Component Intensity ([1]; 10 ppb added): 2.3
Off-Flavor Intensity ([1]; 10 ppb added): 1.6
Masking Component Intensity ([1]; 10 ppt added): 0.5
Off-Flavor Intensity ([1]; 10 ppt added): 3.3
Masking Component Intensity ([1]; 100 ppb added): 3.4
Off-Flavor Intensity ([1]; 100 ppb added): 1.0
Masking Component Intensity ([1]; 100 ppt added): 0.6
Off-Flavor Intensity ([1]; 100 ppt added): 2.8
Masking Component Intensity ([2]; 0.01 ppt added): 0.0
Off-Flavor Intensity ([2]; 0.01 ppt added): 3.5
Masking Component Intensity ([2]; 0.1 ppt added): 0.4
Off-Flavor Intensity ([2]; 0.1 ppt added): 3.3
Masking Component Intensity ([2]; 1 ppb added): 2.3
Off-Flavor Intensity ([2]; 1 ppb added): 1.9
Masking Component Intensity ([2]; 1 ppm added): 4.0
Off-Flavor Intensity ([2]; 1 ppm added): 0.1
Masking Component Intensity ([2]; 1 ppt added): 0.4
Off-Flavor Intensity ([2]; 1 ppt added): 3.3
Masking Component Intensity ([2]; 10 ppb added): 2.9
Off-Flavor Intensity ([2]; 10 ppb added): 1.5
Masking Component Intensity ([2]; 10 ppt added): 1.0
Off-Flavor Intensity ([2]; 10 ppt added): 2.6
Masking Component Intensity ([2]; 100 ppb added): 3.8
Off-Flavor Intensity ([2]; 100 ppb added): 0.8
Masking Component Intensity ([2]; 100 ppt added): 1.4
Off-Flavor Intensity ([2]; 100 ppt added): 2.1
Masking Component Intensity ([3]; 0.01 ppt added): 0.4
Off-Flavor Intensity ([3]; 0.01 ppt added): 3.1
Masking Component Intensity ([3]; 0.1 ppt added): 0.9
Off-Flavor Intensity ([3]; 0.1 ppt added): 3.1
Masking Component Intensity ([3]; 1 ppb added): 1.9
Off-Flavor Intensity ([3]; 1 ppb added): 1.9
Masking Component Intensity ([3]; 1 ppm added): 4.0
Off-Flavor Intensity ([3]; 1 ppm added): 0.5
Masking Component Intensity ([3]; 1 ppt added): 1.0
Off-Flavor Intensity ([3]; 1 ppt added): 2.8
Masking Component Intensity ([3]; 10 ppb added): 2.8
Off-Flavor Intensity ([3]; 10 ppb added): 1.3
Masking Component Intensity ([3]; 10 ppt added): 1.3
Off-Flavor Intensity ([3]; 10 ppt added): 2.4
Masking Component Intensity ([3]; 100 ppb added): 3.4
Off-Flavor Intensity ([3]; 100 ppb added): 0.9
Masking Component Intensity ([3]; 100 ppt added): 1.6
Off-Flavor Intensity ([3]; 100 ppt added): 2.1
concentration that masks the off-flavor and does not affect the flavor of the food and/or beverage itself, lower limit [4]: ≥ 1 ppt
concentration that masks the off-flavor and does not affect the flavor of the food and/or beverage itself, upper limit [4]: ≤ 10 ppb
Masking Component Intensity ([5]; 0.01 ppt added): 0.4
Off-Flavor Intensity ([5]; 0.01 ppt added): 3.3
Masking Component Intensity ([5]; 0.1 ppt added): 0.5
Off-Flavor Intensity ([5]; 0.1 ppt added): 3.1
Masking Component Intensity ([5]; 1 ppb added): 2.1
Off-Flavor Intensity ([5]; 1 ppb added): 1.5
Masking Component Intensity ([5]; 1 ppm added): 4.0
Off-Flavor Intensity ([5]; 1 ppm added): 0.3
Masking Component Intensity ([5]; 1 ppt added): 0.8
Off-Flavor Intensity ([5]; 1 ppt added): 2.8
Masking Component Intensity ([5]; 10 ppb added): 2.8
Off-Flavor Intensity ([5]; 10 ppb added): 1.1
Masking Component Intensity ([5]; 10 ppt added): 1.3
Off-Flavor Intensity ([5]; 10 ppt added): 2.5
Masking Component Intensity ([5]; 100 ppb added): 3.8
Off-Flavor Intensity ([5]; 100 ppb added): 0.6
Masking Component Intensity ([5]; 100 ppt added): 1.5
Off-Flavor Intensity ([5]; 100 ppt added): 2.0
Masking Component Intensity ([6]; 0.01 ppt added): 0.3
Off-Flavor Intensity ([6]; 0.01 ppt added): 3.4
Masking Component Intensity ([6]; 0.1 ppt added): 0.3
Off-Flavor Intensity ([6]; 0.1 ppt added): 3.3
Masking Component Intensity ([6]; 1 ppb added): 1.6
Off-Flavor Intensity ([6]; 1 ppb added): 2.0
Masking Component Intensity ([6]; 1 ppm added): 4.0
Off-Flavor Intensity ([6]; 1 ppm added): 0.3
Masking Component Intensity ([6]; 1 ppt added): 0.4
Off-Flavor Intensity ([6]; 1 ppt added): 3.1
Masking Component Intensity ([6]; 10 ppb added): 2.5
Off-Flavor Intensity ([6]; 10 ppb added): 1.5
Masking Component Intensity ([6]; 10 ppt added): 0.6
Off-Flavor Intensity ([6]; 10 ppt added): 2.8
Masking Component Intensity ([6]; 100 ppb added): 3.5
Off-Flavor Intensity ([6]; 100 ppb added): 1.1
Masking Component Intensity ([6]; 100 ppt added): 0.9
Off-Flavor Intensity ([6]; 100 ppt added): 2.4
Masking Component Intensity ([7]; 0.01 ppt added): 0.3
Off-Flavor Intensity ([7]; 0.01 ppt added): 3.8
Masking Component Intensity ([7]; 0.1 ppt added): 0.6
Off-Flavor Intensity ([7]; 0.1 ppt added): 3.4
Masking Component Intensity ([7]; 1 ppb added): 2.0
Off-Flavor Intensity ([7]; 1 ppb added): 2.1
Masking Component Intensity ([7]; 1 ppm added): 4.0
Off-Flavor Intensity ([7]; 1 ppm added): 0.3
Masking Component Intensity ([7]; 1 ppt added): 0.8
Off-Flavor Intensity ([7]; 1 ppt added): 3.1
Masking Component Intensity ([7]; 10 ppb added): 2.5
Off-Flavor Intensity ([7]; 10 ppb added): 1.6
Masking Component Intensity ([7]; 10 ppt added): 1.1
Off-Flavor Intensity ([7]; 10 ppt added): 2.5
Masking Component Intensity ([7]; 100 ppb added): 3.5
Off-Flavor Intensity ([7]; 100 ppb added): 1.0
Masking Component Intensity ([7]; 100 ppt added): 1.5
Off-Flavor Intensity ([7]; 100 ppt added): 2.4
